According to the supplement of paper PMC10307832:

Legend:
Assay in all cases: relative viability (nuclei count vs DMSO), 5 days (fraction); higher = more cells survive
AZ505 + Olaparib = compound: C1CCC(CC1)N(CCNCCC2=C3C(=C(C=C2)O)NC(=O)CO3)C(=O)CCNCCC4=CC(=C(C=C4)Cl)Cl [AZ505] + O=C(c1cc(Cc2n[nH]c(=O)c3ccccc23)ccc1F)N1CCN(C(=O)C2CC2)CC1 [Olaparib] (partner 8 µM)
Procedure, shortened: (§1)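 Relative viability is defined as nuclei in treated wells over nuclei in vehicle wells. Duplicate plates were run and medians reported. Lung cancer cell lines in 1536-well plates were dosed by pin tool one day after seeding, with one drug or with a fixed anchor-drug dose plus five library-drug doses (not always all listed) in √10 steps, and nuclei were counted after 5 days.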

Dactolisib + Crizotinib = compound: Cn1c(=O)n(-c2ccc(C(C)(C)C#N)cc2)c2c3cc(-c4cnc5ccccc5c4)ccc3ncc21 [Dactolisib] + C[C@@H](Oc1cc(-c2cnn(C3CCNCC3)c2)cnc1N)c1c(Cl)ccc(F)c1Cl [Crizotinib] (partner 1 µM)
Procedure, shortened: as §1

AZ505 + AZD7762 = compound: C1CCC(CC1)N(CCNCCC2=C3C(=C(C=C2)O)NC(=O)CO3)C(=O)CCNCCC4=CC(=C(C=C4)Cl)Cl [AZ505] + NC(=O)Nc1cc(-c2cccc(F)c2)sc1C(=O)N[C@H]1CCCNC1 [AZD7762] (partner 0.2 µM)
Procedure, shortened: as §1

Dactolisib + Foretinib = compound: Cn1c(=O)n(-c2ccc(C(C)(C)C#N)cc2)c2c3cc(-c4cnc5ccccc5c4)ccc3ncc21 [Dactolisib] + COc1cc2c(Oc3ccc(NC(=O)C4(C(=O)Nc5ccc(F)cc5)CC4)cc3F)ccnc2cc1OCCCN1CCOCC1 [Foretinib] (partner 0.25 µM)
Procedure, shortened: as §1

Row | Cell Line | relative viability (AZ505 + Olaparib; first compound 0.08 µM) | relative viability (AZ505 + Olaparib; first compound 0.253 µM) | relative viability (AZ505 + Olaparib; first compound 0.8 µM) | relative viability (AZ505 + Olaparib; first compound 2.53 µM) | relative viability (AZ505 + Olaparib; first compound 8 µM) | relative viability (Dactolisib + Crizotinib; first compound 0.002 µM) | relative viability (Dactolisib + Crizotinib; first compound 0.006325 µM) | relative viability (Dactolisib + Crizotinib; first compound 0.02 µM) | relative viability (Dactolisib + Crizotinib; first compound 0.06325 µM) | relative viability (Dactolisib + Crizotinib; first compound 0.2 µM) | relative viability (AZ505 + AZD7762; first compound 0.08 µM) | relative viability (AZ505 + AZD7762; first compound 0.253 µM) | relative viability (AZ505 + AZD7762; first compound 0.8 µM) | relative viability (AZ505 + AZD7762; first compound 2.53 µM) | relative viability (AZ505 + AZD7762; first compound 8 µM) | relative viability (Dactolisib + Foretinib; first compound 0.002 µM) | relative viability (Dactolisib + Foretinib; first compound 0.006325 µM) | relative viability (Dactolisib + Foretinib; first compound 0.02 µM) | relative viability (Dactolisib + Foretinib; first compound 0.06325 µM) | relative viability (Dactolisib + Foretinib; first compound 0.2 µM)
1 | 201T | 0.851 | 0.857 | 0.82 | 0.862 | 0.846 | 1.03 | 1.04 | 0.998 | 0.977 | 0.913 | 0.63 | 0.572 | 0.688 | 0.596 | 0.613 | 0.916 | 1.11 | 1.06 | 0.636 | 0.491
2 | A549 | 0.315 | 0.362 | 0.358 | 0.415 | 0.296 | 0.855 | 0.653 | 0.569 | 0.162 | 0.0827 |  |  |  |  |  | 1.03 | 0.84 | 0.678 | 0.202 | 0.21
3 | A-427 | 0.765 | 0.704 | 0.724 | 0.721 | 0.732 | 0.93 | 0.856 | 0.844 | 0.615 | 0.48 | 0.695 | 0.618 | 0.705 | 0.715 | 0.647 | 1.2 | 1.05 | 0.873 | 0.56 | 0.46
4 | ABC-1 | 0.688 |  | 0.841 | 0.807 | 1.2 | 0.632 | 0.97 | 0.908 | 0.765 | 0.396 | 0.637 | 0.537 | 0.918 | 0.825 | 0.859 | 1.03 | 1.11 | 0.665 | 0.427 | 0.5
5 | BEN | 0.998 | 1.04 | 1.04 | 1.04 | 1.21 | 0.785 | 0.77 | 0.859 | 0.467 | 0.296 | 0.594 | 0.433 | 0.621 | 0.758 | 0.759 | 0.898 | 0.632 | 0.647 | 0.57 | 0.422
6 | CAL-12T | 0.588 | 0.777 | 0.736 | 0.706 | 0.696 | 0.624 | 0.661 | 0.425 | 0.216 | 0.215 | 0.62 | 0.647 | 0.605 | 0.575 | 0.814 | 1.25 | 1.09 | 0.972 | 0.898 | 0.241
7 | COR-L23 | 0.282 | 0.344 | 0.32 | 0.374 | 0.38 | 0.787 | 0.604 | 0.619 | 0.283 | 0.165 |  |  |  |  |  | 1.2 | 0.982 | 0.948 | 0.369 | 0.34
8 | COR-L 105 | 0.405 | 0.657 | 0.698 | 0.715 | 0.554 | 0.85 | 0.874 | 0.561 | 0.645 | 0.283 |  |  |  |  |  | 0.926 | 1 | 0.832 | 0.859 | 0.417
9 | Calu-6 | 0.543 | 0.59 | 0.525 | 0.504 | 0.608 | 0.891 | 0.766 | 0.702 | 0.462 | 0.325 |  |  |  |  |  | 0.826 | 0.915 | 0.879 | 0.531 | 0.543
